Test results reported in US11448563B2, “Force measurement method, force measurement device, force measurement system, force measurement program, and recording medium” (Tohoku University, priority 2017, dated 2022).

Tested on: motor proteins
Test: Frequency distribution of the fluctuation value χ of cargo transport, measured with the force measurement device after adding Ciliobrevin to cells
Assay type: cell-based
Conditions: melanocytes; for number of clusters into which the frequency distribution of the fluctuation value χ is classified: four clusters without Ciliobrevin
Description: The dish after stain was placed on a heating plate (CU-201, Live Cell Instrument), and the stained melanin vesicles in melanocytes were observed under a dark-field microscope (IX71, Olympus) while the temperature was maintained at 37° C. A video was captured using an EMCCD camera (LucaS (Andor)) with a 100× objective lens (UPlanFL 100x/1.3, Plympus) at 98 frames per second. Time course data of the position of the center of gravity of melanin vesicles was calculated from the video using ImageJ (Rasband, 1997).
FIG. 15A, FIG. 15B and FIG. 15C are diagrams showing specific results showing that the fact that the frequency distribution of the fluctuation value χ changes according to addition of Ciliobrevin which is a reagent that inhibits a function of motor proteins into melanocytes is clear from measurement of χ using the force measurement device 1 of the embodiment.

Ciliobrevin
change in the number of clusters of the fluctuation value χ with the amount of Ciliobrevin added (comparison of 0, 20 and 40 μM (FIG. 15A-15C)): number of clusters decreases as the amount of Ciliobrevin added increases | number of clusters into which the frequency distribution of the fluctuation value χ is classified (concentration of Ciliobrevin in the cell culture medium 20 μM (FIG. 15B)): two clusters | number of clusters into which the frequency distribution of the fluctuation value χ is classified (concentration of Ciliobrevin in the cell culture medium 40 μM (FIG. 15C)): one cluster
